Test results: patent US6974568B2, “Treatment for cough” (The Regents of the University of California, priority 2000, dated 2005)

Legend:
bronchial smooth muscle [1] = experiment: Bronchoconstriction in vagotomized, atropine-treated guinea pigs; type: in vivo, guinea pig; conditions: for bronchial muscle constriction, % of maximal bronchospasm: tracheal administration, n=6; for effect on anandamide bronchoconstriction in vivo: antagonist before anandamide
[2] = system: guinea pig lung parenchyma strips; experiment: Isolated lung strips, muscle contraction; conditions: for effect on anandamide bronchoconstriction in vitro: SR141716A 1 μM, lung strips
Protocol: Guinea pig parenchimal strips were prepared essentially as described in Samhoun, M. N., et al. (1984) Prostaglandins, 27, 711-724. The strips were placed in 10-ml organ baths containing Krebs' buffer (in mM: NaCl, 118; KCl, 4; K2HPO4, 1.2; MgSO4, 1.2; CaCl2, 2.5; NaHCO3, 25.0; glucose, 11.2; supplemented with […] atropine sulfate and […] indomethacin) at 37° C. and aerated with an oxygen/carbon dioxide mixture (95/5%). Muscle contractions were recorded with an isometric force transducer (U. Basile) and expressed in dyne per mg of fresh tissue.

[3] = system: capsaicin-evoked bronchospasm; experiment: Capsaicin-evoked bronchospasm in anesthetized guinea pigs; type: in vivo, guinea pig; conditions: for effect on capsaicin-evoked bronchospasm: administered systemically before capsaicin; for reversal of anandamide's inhibition of capsaicin-evoked bronchospasm: antagonist given with anandamide, SR141716A 0.5 mg per kg i.v., SR144528 0.3 mg per kg i.v. (maximal dose); for intrinsic effect on capsaicin-evoked bronchoconstriction: capsaicin via tracheal catheter or i.v., antagonist i.v.
bronchial smooth muscle [4] = experiment: Direct bronchomotor action in anesthetized animals with intact vagus; type: in vivo, guinea pig
capsaicin-evoked cough = conditions: guinea pig, in vivo
[5] = system: capsaicin-evoked bronchospasm; experiment: Capsaicin-evoked bronchospasm in anesthetized rats; type: in vivo, rat; conditions: n=3
bronchial smooth muscle [6] = experiment: Bronchoconstriction in vagotomized, atropine-treated rats; type: in vivo, rat; conditions: after vagotomy and atropine, n=3
[7] = capsazepine 0.2 mg per kg, i.v.

In the case of CCCCCCC(C)(C)c1cc(O)c2c(c1)OC(C)(C)[C@@H]1CC=C(CO)C[C@@H]21 [HU210], the “bronchial muscle constriction, % of maximal bronchospasm” value (“bronchial muscle constriction, %” below) (bronchial smooth muscle [1]; 0.1 mg per animal) is reported as 10.0±0.6%, the “bronchial muscle constriction, %” value (bronchial smooth muscle [1]; 1 mg per animal) is reported as 30±1.2% and the “bronchial muscle constriction, %” value (bronchial smooth muscle [1]; 10 mg per animal) is reported as 60±2.2%. The “bronchial muscle constriction, %” value (bronchial smooth muscle [1]; 30 mg per animal) was 100%.

CCCCC/C=C\C/C=C\C/C=C\C/C=C\CCCC(=O)Nc1ccc(O)cc1 [N-(4-hydroxyphenyl)-arachidonamide] was tested, and the “anandamide-evoked contraction of isolated lung strips” value ([2]; anandamide 50 μM plus N-(4-hydroxyphenyl)-arachidonamide 28 μM, P<0.05, n=6) was 0.638±0.06 dyne/mg of tissue.

With CCCCCCCCCCCCCCCC(=O)NCCO [Palmitylethanolamide] the “effect on capsaicin-evoked bronchospasm” value [3] was “ineffective”.

Cc1c(C(=O)NN2CCCCC2)nn(-c2ccc(Cl)cc2Cl)c1-c1ccc(Cl)cc1 [SR141716A] was tested, and the “reversal of anandamide's inhibition of capsaicin-evoked bronchospasm” value [3] was “completely reversed”, the “bronchospasm, % of maximal bronchospasm” value ([3]; capsaicin i.v. after SR141716A 0.5 mg per kg i.v., P<0.05, n=3) was 92.3±3.4% and the “intrinsic effect on capsaicin-evoked bronchoconstriction” value [3] was “significantly enhanced”. For the same compound, the “bronchomotor consequences per se” value (bronchial smooth muscle [4]; antagonist alone, without capsaicin, guinea pigs) was “no bronchomotor consequences per se”, the “effect on anandamide bronchoconstriction in vivo” value (bronchial smooth muscle [1]) was “blocked” and the “effect on anandamide bronchoconstriction in vitro” value [2] was “blocked”. For the same compound, the “effect of CB1 receptor blockade on anandamide's reduction of capsaicin-evoked cough” value (capsaicin-evoked cough; iv) was “abrogated” and the “intrinsic effect on capsaicin-evoked coughing” value (capsaicin-evoked cough; iv) was “significantly enhanced”.

In the case of CCCCC/C=C\C/C=C\C/C=C\C/C=C\CCCC(=O)NCCO [anandamide, arachidonylethanolamide], the “effect on capsaicin-evoked bronchospasm” value [3] is reported as “abrogated”, the “bronchospasm, % of maximal bronchospasm” value ([5]; capsaicin intratracheal after anandamide 1 mg per kg i.v.) is reported as 14±7% and the “bronchoconstriction, % of maximal” value (bronchial smooth muscle [4]; 5 mg per kg (highest dose tested), mean±s.e.m., n=5) is reported as 11.8±5.9%. For the same compound, the direct bronchomotor action (bronchial smooth muscle [4]; doses below the highest dose tested (5 mg per kg), species not given) was “no direct bronchomotor action”, the “bronchomotor effect after vagotomy and atropine” value (bronchial smooth muscle [1]; systemic application, guinea pigs) was “dose-dependent bronchoconstriction” and the “bronchoconstriction, % of maximal bronchospasm” value (bronchial smooth muscle [6]; 1 mg per kg i.v.) was 0±0%. The “bronchoconstriction, % of maximal bronchospasm” value (bronchial smooth muscle [6]; 3 mg per kg i.v.) was 12±1.7%, the “bronchoconstriction, % of maximal bronchospasm” value (bronchial smooth muscle [6]; 5 mg per kg i.v.) was 18.3±1.2% and the “contraction of isolated lung strips” value ([2]; anandamide 50 μM alone, n=6) was 0.336±0.07 dyne/mg of tissue. The “visual signs of cannabinoid intoxication” value (capsaicin-evoked cough) was “not accompanied by any visual signs of cannabinoid intoxication”.

With COc1cc(CNC(=O)CCCC/C=C/C(C)C)ccc1O [capsaicin] the “bronchospasm, % of maximal bronchospasm” value ([3]; capsaicin alone, i.v., n=3) was 55.3±8.2%, the “bronchospasm, % of maximal bronchospasm” value ([5]; capsaicin 30 mg per animal, intratracheal) was 55±12% and the “bronchospasm, % of maximal bronchospasm” value ([5]; capsaicin 100 mg per animal, intratracheal) was 81±19%. The “bronchospasm, % of maximal bronchospasm” value ([5]; capsaicin intratracheal alone (anandamide experiment)) was 37.2±4.2% and the “bronchospasm, % of maximal bronchospasm” value ([5]; capsaicin, intratracheal, mean±s.e.m.) was 41±6%.

For Oc1cc2c(cc1O)CN(C(=S)NCCc1ccc(Cl)cc1)CCC2 [capsazepine], the “effect on the capsaicin response (bronchospasm)” value [3, 7] was “completely prevented” and the “effect on anandamide-evoked bronchospasm” value (bronchial smooth muscle [1]; [7]) was “had no effect”.

In the case of SR144528, the “reversal of anandamide's inhibition of capsaicin-evoked bronchospasm” value [3] is reported as “only slightly reduced”, the “intrinsic effect on capsaicin-evoked bronchoconstriction” value [3] is reported as “had no such effects” and the “effect on anandamide bronchoconstriction in vivo” value (bronchial smooth muscle [1]) is reported as “had no such effect”. For the same compound, the “effect on anandamide bronchoconstriction in vitro” value [2] was “had no such effect” and the “intrinsic effect on capsaicin-evoked coughing” value (capsaicin-evoked cough; iv) was “had no such effects”.
